In brackets after ≈: the same amount, converted by molar mass.

This test concerns Mycobacterium tuberculosis. As to the kind of experiment: Antitubercular activity against Mycobacterium tuberculosis H37Rv after 2 weeks. The following applies: 336 h. It counts as functional.
Turning to `COc1cc(/C=C/C=O)cc2ccoc12`, the lowest concentration to inhibit growth (MIC) was 35 µg/mL (≈ 173 µM).

In the case of `COc1cc(CCCO)cc2ccoc12`, the MIC was determined as 50 µg/mL (≈ 242 µM).

For the molecule `COC(=O)c1cc2c(c(OC)c1)O[C@H](C(C)(C)O)C2`, it took 35 µg/mL (≈ 131 µM) to inhibit growth (MIC).

The molecule `COc1c2ccccc2nc2occc12` [DICTAMNINE] displayed an MIC of 30 µg/mL (≈ 151 µM).

Turning to `CC[C@@H](CO)NCCN[C@@H](CC)CO` [ETHAMBUTOL], the MIC worked out at 6.25 µg/mL (≈ 30.6 µM).

As for `COc1c2ccoc2nc2c(OC)cccc12` [GAMMA-FAGARINE], the lowest concentration to inhibit growth (MIC) was 30 µg/mL (≈ 131 µM).

Molecule `COC(=O)/C=C/c1ccc2c(c1)C[C@@H](C(C)(C)O)O2` [METHYL DEMETHOXYWUTAIENSATE] returned a minimum inhibitory concentration (MIC) of 50 µg/mL (≈ 191 µM).

Molecule `CC(C)=CCOc1ccc(C(=O)O)cc1` [VALENCIC ACID] had an MIC of 45 µg/mL (≈ 218 µM).

`COc1cc(/C=C/C=O)cc2c1O[C@H](C(C)(C)O)C2` [WUTAIENSAL] displayed a minimum inhibitory concentration (MIC) of 30 µg/mL (≈ 114 µM).

For the origin of these results see ChEMBL document CHEMBL1155034, “Constituents of the root wood of Zanthoxylum wutaiense with antitubercular activity” (2008).
